Consider 21 compounds from ChEMBL document CHEMBL5241120, “Insights into the medicinal chemistry of heterocycles integrated with a pyrazolo[1,5-a]pyrimidine scaffold” (RSC Med Chem, 2022).

One assay relates to HepG2. In words: Cytotoxicity against human HepG2 cells by MTT assay. The class given is functional, cell-based. On the technique in general: Tetrazolium assays rely on reduction of a dye to a coloured formazan, in cell work by metabolically active cells.
A further assay concerns HCT-116. In words: Cytotoxicity against human HCT-116 cells by MTT assay. The class given is functional, cell-based.
The subject of the next assay is Salmonella enterica. In words: Antibacterial activity against Salmonella enterica assessed as zone of inhibition. The class given is functional.
In another assay the test system is MCF7. In words: Cytotoxicity against human MCF7 cells by MTT assay. It counts as functional, cell-based.
In assay [1] the test system is Bacillus subtilis. Description: Antibacterial activity against Bacillus subtilis. It counts as functional.
The test system of a further assay is Staphylococcus aureus. Description: Antibacterial activity against Staphylococcus aureus. It counts as functional.
Assay [2] deals with Escherichia coli. Description: Antibacterial activity against Escherichia coli. It counts as functional.
In the next assay the test system is Pseudomonas aeruginosa. In words: Antibacterial activity against Pseudomonas aeruginosa. It counts as functional.
A further assay deals with Candida albicans. Description: Antifungal activity against Candida albicans assessed as zone of inhibition. The class given is functional.
Assay [3] has as its system Aspergillus niger. Description: Antifungal activity against Aspergillus niger assessed as zone of inhibition. The class given is functional.
For assay [4], the system named is Bacillus subtilis. Description: Antibacterial activity against Bacillus subtilis assessed as zone of inhibition. The class given is functional.
Assay [5] deals with Escherichia coli. Description: Antibacterial activity against Escherichia coli assessed as zone of inhibition. The class given is functional.
A further assay deals with HeLa. In words: Cytotoxicity against human HeLa cells by MTT assay. The class given is functional, cell-based.
The test system of the next assay is SiHa. Description: Cytotoxicity against human SiHa cells by MTT assay. It counts as functional, cell-based.
The test system of the next assay is Rattus norvegicus. In words: Analgesic activity in Sprague-Dawley rat at 15 mg/kg after 2 hrs by hot plate test. It counts as functional. For orientation: Thermal pain tests record how soon the animal reacts.
For the next assay, the system named is Aspergillus flavus. In words: Antifungal activity against Aspergillus flavus by dry weight method. It counts as functional. Also on record: unit not given beside the values.
A further assay has as its system Fusarium verticillioides. Description: Antifungal activity against Fusarium moniliforme by dry weight method. It counts as functional.
Assay [6] concerns Aspergillus niger. Description: Antifungal activity against Aspergillus niger by dry weight method. It counts as functional.
Assay [7] deals with T1, Prostaglandin G/H synthase 1 (Ovis aries, UniProt P05979).
T1 sequence (P05979 whole entry): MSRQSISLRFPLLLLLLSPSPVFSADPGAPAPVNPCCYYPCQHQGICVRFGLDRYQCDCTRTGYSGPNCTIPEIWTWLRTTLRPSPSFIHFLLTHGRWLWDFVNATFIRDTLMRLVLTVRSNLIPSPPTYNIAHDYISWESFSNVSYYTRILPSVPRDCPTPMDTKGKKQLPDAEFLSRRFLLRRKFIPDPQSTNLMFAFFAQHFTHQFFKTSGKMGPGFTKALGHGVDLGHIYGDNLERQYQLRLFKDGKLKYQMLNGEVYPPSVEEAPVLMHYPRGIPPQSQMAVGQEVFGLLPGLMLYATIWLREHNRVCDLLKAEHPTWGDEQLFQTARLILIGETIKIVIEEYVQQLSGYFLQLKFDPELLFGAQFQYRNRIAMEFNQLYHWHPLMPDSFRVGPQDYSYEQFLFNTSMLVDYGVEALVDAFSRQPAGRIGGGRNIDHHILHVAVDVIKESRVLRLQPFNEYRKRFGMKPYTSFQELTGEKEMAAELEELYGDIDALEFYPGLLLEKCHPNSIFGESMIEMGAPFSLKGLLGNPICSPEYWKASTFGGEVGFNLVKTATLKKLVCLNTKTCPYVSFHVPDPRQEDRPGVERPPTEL
In words: Inhibition of ovine COX-1.

A short description of assay [8]: Inhibition of soybean 15-LOX. Also on record: species or system Glycine max.

SMILES strings stand for the structures. ≈ marks a conversion by molar mass, not a printed value.

Usually IC50 stands for the concentration that inhibits the measured activity by half. With `COc1cccc2c1C(=O)c1c(O)c3c(c(O)c1C2=O)C[C@@](O)(C(=O)CO)C[C@@H]3O[C@H]1C[C@H](N)[C@H](O)[C@H](C)O1` [DOXORUBICIN], the IC50 in the assay with HepG2 was 80.9 µM; in the assay on HCT-116, 1.6 µg/mL (≈ 2.94 µM).
Consider `O=C(Nc1ccccc1)c1cnn2c(-c3ccccn3)ccnc12`, for which the “inhibition zone (IZ)” value in the assay with Salmonella enterica was 11 mm.
In the case of `Cc1ccc(-c2nc3c(/N=N/c4cccc(C(F)(F)F)c4)c(N)nn3c(N)c2C#N)cc1`, the 50% inhibitory concentration (IC50) was determined as 0.64 µg/mL in the assay with HepG2, 1.89 µg/mL (≈ 4.33 µM) in the assay with HCT-116 and 2.79 µg/mL (≈ 6.39 µM) with MCF7.
For the compound `CC(=O)c1cnc2c(C(=O)Nc3ccccc3)cnn2c1C`, the “inhibition zone (IZ)” value in the assay on Salmonella enterica amounted to 16 mm.
One may read the MIC as the least concentration at which growth counts as inhibited. Take `COc1ccc(Nc2nn3c(-c4ccccc4)ccnc3c2C(N)=O)cc1`: the minimal inhibitory concentration (MIC) against Bacillus subtilis [1] was found to be 3.9 µg/mL (≈ 10.9 µM); against Staphylococcus aureus, 7.81 µg/mL (≈ 21.7 µM); in the assay with Escherichia coli [2], 15.6 µg/mL (≈ 43.5 µM); in the assay with Pseudomonas aeruginosa, 7.81 µg/mL (≈ 21.7 µM).
For the compound `COC1=CC(=O)C[C@@H](C)[C@]12Oc1c(Cl)c(OC)cc(OC)c1C2=O` [GRISEOFULVIN], the “inhibition zone (IZ)” value in the assay with Candida albicans was 16.8 mm.
For `COc1ccc(Nc2nn3c(N)c(C#N)c(-c4cccc(Cl)c4)nc3c2C(=O)Nc2ccc(Cl)cc2)cc1`, the “inhibition zone (IZ)” value with Aspergillus niger [3] is reported as 15 mm.
As for `CC1=CC(c2ccccc2)n2nc(C)cc2N1` (stereo not given), the IC50 is 24.8 µg/mL in the assay with HepG2, 22.6 µg/mL (≈ 100 µM) in the assay with HCT-116 and 23.5 µg/mL (≈ 104 µM) in the assay on MCF7.
Consider `COc1ccc(Nc2nn3c(N)c(C#N)c(-c4cc(OC)ccc4OC)nc3c2C(=O)Nc2ccccc2)cc1`, for which the “inhibition zone (IZ)” value is recorded as 20 mm with Bacillus subtilis [4], 15 mm in the assay on Aspergillus niger [3] and 16 mm with Escherichia coli [5].
For the compound `CC1=CC(c2ccccc2)n2nc(-c3ccccc3)cc2N1` (stereo not given), the IC50 in the assay on HepG2 amounted to 0.64 µg/mL; in the assay with HCT-116, 1.89 µg/mL (≈ 6.58 µM); in the assay on MCF7 it was 2.79 µg/mL (≈ 9.71 µM).
With `COc1cc(-c2cc(C(=O)N3CCN(C(=O)c4ccccc4NCc4ccco4)CC3)nc3cc(-c4ccccc4)nn23)cc(OC)c1OC`, the results for the IC50 in the assay with HeLa and in the assay on SiHa were 1.54 µM and 1.61 µM, respectively.
Regarding `CC1=Nc2cc(C)nn2C(=O)/C1=N\Nc1ccc(C)cc1`, the Activity with Rattus norvegicus is 96.7%.
In the case of `C[C@@H]1C[C@@H]([C@H](O)CC2CC(=O)NC(=O)C2)C(=O)[C@@H](C)C1` [CYCLOHEXIMIDE], in the assay on Candida albicans, the “inhibition zone (IZ)” value is given as 32 mm.
With `C[C@@H]1[C@H](O)[C@@H](C)/C=C/C=C/C=C/C=C/C=C/C=C/C=C/[C@H](O[C@@H]2O[C@H](C)[C@@H](O)[C@H](N)[C@@H]2O)C[C@@H]2O[C@](O)(C[C@@H](O)C[C@@H](O)[C@H](O)CC[C@@H](O)C[C@@H](O)CC(=O)O[C@H]1C)C[C@H](O)[C@H]2C(=O)O` [AMPHOTERICIN B], the “inhibition zone (IZ)” value in the assay on Aspergillus niger [3] came out at 23.3 mm.
Turning to `CN[C@@H]1[C@H](O[C@H]2[C@H](O[C@H]3[C@H](O)[C@@H](O)[C@H](N=C(N)N)[C@@H](O)[C@@H]3N=C(N)N)O[C@@H](C)[C@]2(O)C=O)O[C@@H](CO)[C@H](O)[C@H]1O` [STREPTOMYCIN], the “inhibition zone (IZ)” value with Bacillus subtilis [4] was determined as 16.2 mm; with Escherichia coli [5], 16.4 mm. Besides, the MIC with Bacillus subtilis [1] and in the assay with Escherichia coli [2] was 5 µg/mL (≈ 8.6 µM) throughout.
Take `O=C(O)Cc1ccccc1Nc1c(Cl)cccc1Cl` [DICLOFENAC]: the Activity with Rattus norvegicus is given as 84%.
With `CC(=O)O[C@H]1C(=O)[C@@]2(C)[C@H]([C@H](OC(=O)c3ccccc3)[C@]3(O)C[C@H](OC(=O)[C@H](O)[C@@H](NC(=O)c4ccccc4)c4ccccc4)C(C)=C1C3(C)C)[C@]1(OC(C)=O)CO[C@@H]1C[C@@H]2O` [PACLITAXEL], the IC50 was 4.3 µg/mL with HepG2, 2.9 µg/mL (≈ 3.4 µM) in the assay on HCT-116 and 4.7 µg/mL (≈ 5.5 µM) in the assay with MCF7.
On to `CSc1nn2c(-c3ccccc3)c(C#N)c(=O)[nH]c2c1-c1nc2ccccc2n1C`, for which the Activity was 0.33 in the assay on Aspergillus flavus, 0.16 in the assay on Fusarium verticillioides and 0.43 in the assay with Aspergillus niger [6].
In the case of `CSc1nn2c(-c3cccs3)c(C#N)c(N)nc2c1-c1nc2ccccc2n1C`, the Activity in the assay with Aspergillus flavus amounted to 0.38; in the assay on Fusarium verticillioides, 0.28; in the assay on Aspergillus niger [6], 0.56.
For `COc1ccnc(Nc2n[nH]c(N)c2C#N)c1`, the IC50 in assay [7] was 9.1 µM; in assay [8], 14.2 µM.
Consider `COc1ccnc(Nc2nn3c(SC)c(C#N)c(N)nc3c2C#N)c1`, for which the IC50 is 10.2 µM in assay [7] and 27.3 µM in assay [8].
